From EP0050407A1, “3,5-Disubstituted-1,2,4-triazole compounds, processes for their preparation and pharmaceutical compositions containing them” (GLAXO GROUP LIMITED, priority 1980, dated 1982) come the findings set out here.

Where a name gives a salt, the structure may show the parent alone. Where only a bound is given, the exact number is not on record here.

In series [1] the test system is secretion of gastric acid. The series can be described thus: perfused rat stomach test (inhibition of gastric acid secretion stimulated via histamine receptors). Format: in vivo. The source says:
Certain novel heterocyclic derivatives have now been found which have potent activity as H2-antagonists.

Another series has as its system rats. The series can be described thus: toxicity in rats. Format: in vivo.
[2] abbreviates: administered intravenously to rats at doses of at least twice their ED50 values.

For the compound `OCCc1n[nH]c(CCCCOc2cccc(CN3CCCCC3)c2)n1` [2(a), 5-[4-[3-(1-Piperidinylmethyl)phenoxy]butyl]-1H-1,2,4-triazole-3-(2-ethanol) maleate (1:2)], the ED50 in series [1] was under 0.63 mg/kg.

For the compound `CC(O)c1n[nH]c(CCCCOc2cccc(CN3CCCCC3)c2)n1` (stereo not shown) [2(e), 5-[4-[3-(1-piperidinylmethyl)phenoxy]butyl]-1H-1,2,4-triazole-3-(1-ethanol)oxalate (1:2)], the ED50 in series [1] was under 0.63 mg/kg.

Compound `CC(=O)OCc1n[nH]c(CCCCOc2cccc(CN3CCCCC3)c2)n1` [Example 3, 5-[4-[3-(1-Piperidinylmethyl)phenoxy]butyl]-1H-1,2,4-triazole-3-methanol acetate(ester)fumarate] came in with a 50% effective dose (ED50) in series [1] of under 0.63 mg/kg.

As for `OCc1n[nH]c(CCCCOc2cccc(CN3CCCCC3)c2)n1` [Example 6], the toxic effects entry in the series with rats (administered orally to rats at a dose of 400 mg/kg) is reported as “no toxic effects”. This compound also gave an ED50 in series [1] of under 0.63 mg/kg.

With `CS(=O)(=O)Cc1n[nH]c(CCCCOc2cccc(CN3CCCCC3)c2)n1` [Example 7, 3-(Methylsulphonyl)methyl-5-[4-[3-(1-piperidinylmethyl)phenoxy]butyl]-lH-l,2,4-triazole], the toxic effects entry with rats (setting [2]) is “no toxic effects”. For the same compound, in series [1], the ED50 is under 0.63 mg/kg.

`O=Cc1n[nH]c(CCCCOc2cccc(CN3CCCCC3)c2)n1` [Example 8, 5-[4-[3-(1-Piperidinylmethyl)phenoxy]butyl]-1H-1,2,4-triazole-3-carboxaldehyde hydrate] came in with an ED50 in series [1] of under 0.63 mg/kg.

In the case of `ON=Cc1n[nH]c(CCCCOc2cccc(CN3CCCCC3)c2)n1` [Example 9, 5-[4-[3-(1-Piperidinylmethyl)phenoxy]butyl]-1H-1,2,4,- triazole-3-carboxaldehyde oxime], the toxic effects result with rats (setting [2]) is given as “no toxic effects”. This compound yielded an ED50 in series [1] of under 0.63 mg/kg.
